Here are results for two compounds from patent US20040167188A1, “Protein-tyrosine phosphatase inhibitors and uses thereof” (priority 2003, published 2004).

The target in assay [1] is T1, CD45 (Homo sapiens, UniProt P08575).
T1 construct: purchased Biomol Research Laboratories, Inc. SE-135
T1 sequence (P08575 609-1306 limits assumed): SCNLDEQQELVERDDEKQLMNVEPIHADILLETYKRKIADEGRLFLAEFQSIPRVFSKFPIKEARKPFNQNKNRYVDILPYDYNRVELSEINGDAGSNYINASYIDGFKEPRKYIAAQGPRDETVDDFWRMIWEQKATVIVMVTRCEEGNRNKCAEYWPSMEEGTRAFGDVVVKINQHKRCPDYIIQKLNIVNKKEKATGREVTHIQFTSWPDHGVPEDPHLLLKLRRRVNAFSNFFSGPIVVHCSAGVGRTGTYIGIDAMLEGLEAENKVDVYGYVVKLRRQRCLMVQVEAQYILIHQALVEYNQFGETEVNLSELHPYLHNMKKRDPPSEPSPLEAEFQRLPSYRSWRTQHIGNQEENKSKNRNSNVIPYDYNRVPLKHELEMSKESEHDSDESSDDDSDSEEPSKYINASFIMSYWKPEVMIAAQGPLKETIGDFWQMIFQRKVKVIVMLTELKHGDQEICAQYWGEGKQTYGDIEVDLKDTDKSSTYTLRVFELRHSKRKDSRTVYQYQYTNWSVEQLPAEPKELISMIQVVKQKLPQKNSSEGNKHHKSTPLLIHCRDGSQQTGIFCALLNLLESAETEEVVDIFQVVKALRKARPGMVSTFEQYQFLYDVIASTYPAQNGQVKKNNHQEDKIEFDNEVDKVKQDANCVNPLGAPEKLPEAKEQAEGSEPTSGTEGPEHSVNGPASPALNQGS
Kind of assay: Inhibition constant determination, selectivity panel: CD45 (pNPP hydrolysis). It is filed as biochemical. As to conditions: competitive Ki; pNPP substrate; read-out: Phosphatase Inhibition Constants (Kic) CD45. As for the experimental part: CD45 was obtained commercially (catalog#SE-135 Biomol Research Laboratories, Inc. 5120 Butler Pike, Plymouth Meeting, Pa.).
(§1) The Kic and Kiu values are calculated as described for PTP1B. The assays were performed as described for PTP-1B except for the following changes. All the phosphatases except PP2B use the same 2× assay buffer as PTP1B. PP2B uses a 2× assay buffer which contains 100 mM TRIS-HCl pH 8.6, 40 mM MgCl2, 0.2 mM CaCl2, 6 mM DTT, 0.2 mg/mL BSA. The concentrations of pNPP present in 40 ul were the same for TCPTP, CD45, LAR and PTP1B. For PP2B they were 24 mM, 60 mM, 150 mM, and 375 mM; for cdc25C they were 16 mM, 40 mM, 100 mM, and 250 mM; for SHP-2 they were 6.4 mM, 16 mM, 40 mM, and 100 mM.

In assay [2] the target is T2, CDC25c (fusion with glutathione-S-transferase) (Homo sapiens, UniProt P30307).
T2 sequence (P30307 1-473): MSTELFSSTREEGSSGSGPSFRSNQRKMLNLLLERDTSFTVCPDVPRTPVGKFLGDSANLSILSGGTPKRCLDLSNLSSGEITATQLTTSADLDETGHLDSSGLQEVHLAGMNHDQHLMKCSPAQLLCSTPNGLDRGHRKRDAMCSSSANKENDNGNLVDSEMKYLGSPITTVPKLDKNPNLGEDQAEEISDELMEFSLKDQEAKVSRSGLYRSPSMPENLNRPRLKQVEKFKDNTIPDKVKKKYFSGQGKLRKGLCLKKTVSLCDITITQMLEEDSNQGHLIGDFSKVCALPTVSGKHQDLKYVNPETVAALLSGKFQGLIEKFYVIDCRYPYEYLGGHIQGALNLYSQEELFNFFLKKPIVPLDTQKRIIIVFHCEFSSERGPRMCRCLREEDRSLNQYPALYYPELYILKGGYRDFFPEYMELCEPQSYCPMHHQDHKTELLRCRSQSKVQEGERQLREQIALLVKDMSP
As to the kind of experiment: Inhibition constant determination, selectivity panel: cdc25c (pNPP hydrolysis). The format is biochemical. As to conditions: competitive Ki; pNPP substrate; read-out: Phosphatase Inhibition Constants (Kic) Cdc25c. As for the experimental part: CDC25c was expressed as a fusion with glutathione-S— transferase (aka GST) in E. coli. Cells were lysed and debris removed as described for SHP-2, except lysis was in PBS (GibcoBRL Life Technologies, Grand Island, N.Y., Stock # 70011-044, diluted 10-fold). The soluble proteins were chromatographed on Glutathione-Sepharose FF (Amersham Pharmacia Biotech) and eluted with 10 mM reduced glutathione in 25 mM TRIS-HCl, pH 7.5, 150 mM NaCl. Fractions were assayed, pooled and stored as decribed for PTP1B.
as §1

Assay [3] concerns the target T3, Human protein tyrosine phosphatase 1B (PTP1B, amino acid residues 1-321) (Homo sapiens, UniProt P18031).
T3 sequence (P18031 1-321): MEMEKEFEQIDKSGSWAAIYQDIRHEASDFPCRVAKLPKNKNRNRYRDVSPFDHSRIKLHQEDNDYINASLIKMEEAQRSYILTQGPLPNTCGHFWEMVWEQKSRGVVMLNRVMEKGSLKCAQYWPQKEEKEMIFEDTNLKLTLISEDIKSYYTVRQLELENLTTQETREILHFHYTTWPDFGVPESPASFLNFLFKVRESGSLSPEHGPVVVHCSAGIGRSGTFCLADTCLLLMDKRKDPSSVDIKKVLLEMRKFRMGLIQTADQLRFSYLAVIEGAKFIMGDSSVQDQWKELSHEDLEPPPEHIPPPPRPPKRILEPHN
The conditions noted are these: read-out: Phosphatase Inhibition Constants (Kic) PTP1B; competitive Ki, +/- S.D.; pNPP substrate.
Description: Human protein tyrosine phosphatase 1B (PTP1B, amino acid residues 1-321) was expressed in E. coli BL21 (DE3). The cell paste was resuspended in 4 cell paste volumes of lysis buffer containing 100 mM MES (pH 6.5), 100 mM NaCl, 1 mM EDTA, 1 mM DTT, 1 mM PMSF, 20 U/mL Benzonase, 0.5 mg/mL lysozyme, and 1 mM MgCl2 and incubated for 35 minutes at room temperature. The cells were lysed at 11,000 psi using a Rannie homogenizer, and the homogenate was clarified in a Beckman GSA rotor at 10,000×g for 30 minutes at 4° C. […] After sample application, the column was washed with 10 column volume (CV) of the same buffer, PTP1B was eluted with a 20 CV linear gradient of 100 mM to 500 mM NaCl in the same buffer. The fractions (28 mL each) were assayed for purity by 10-20% Tris-Glycine SDS-PAGE. Fractions which contained >95% protein tyrosine phosphatase 1 B were combined. These fractions were concentrated to approximately 10 mg/mL by ultrafiltration and chromatographed on a 180 mL (1.6 cm×90 cm) Superdex 75 column in 10 mM TRIS-HCl, pH 7.5, 25 mM NaCl, 0.2 mM EDTA, 3 mM DTT. The fractions (2 mL each) were assayed for purity by 10-20% Tris-Glycine SDS-PAGE. Fractions which contained >99% protein tyrosine phosphatase 1 B were combined. Aliquots were frozen in liquid N2 and stored at −70° C. until used. Once thawed, PTP1B was stored on ice and used within 6 hours.

For assay [4], the target named is T4, SHP-2 (full length) (Homo sapiens, UniProt Q06124).
T4 sequence (Q06124 1-593): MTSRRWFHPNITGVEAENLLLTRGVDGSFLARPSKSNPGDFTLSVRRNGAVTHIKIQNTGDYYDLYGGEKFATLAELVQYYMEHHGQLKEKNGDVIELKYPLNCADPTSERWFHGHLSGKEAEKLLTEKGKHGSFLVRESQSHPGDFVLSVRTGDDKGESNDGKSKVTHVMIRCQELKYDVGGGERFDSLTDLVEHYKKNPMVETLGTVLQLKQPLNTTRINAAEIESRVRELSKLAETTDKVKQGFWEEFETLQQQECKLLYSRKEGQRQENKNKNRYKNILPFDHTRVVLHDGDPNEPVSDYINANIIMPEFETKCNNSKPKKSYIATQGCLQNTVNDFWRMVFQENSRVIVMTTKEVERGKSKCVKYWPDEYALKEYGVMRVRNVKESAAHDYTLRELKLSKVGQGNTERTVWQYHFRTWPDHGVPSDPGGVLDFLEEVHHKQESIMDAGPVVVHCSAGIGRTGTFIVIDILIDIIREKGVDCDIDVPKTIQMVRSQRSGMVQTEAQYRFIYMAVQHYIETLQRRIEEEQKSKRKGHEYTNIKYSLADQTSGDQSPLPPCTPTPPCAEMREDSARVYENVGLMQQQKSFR
As to the kind of experiment: Inhibition constant determination, selectivity panel: SHP-2 (pNPP hydrolysis). The format is biochemical. As to conditions: competitive Ki; pNPP substrate; read-out: Phosphatase Inhibition Constants (Kic) SHP-2. As for the experimental part: Cells were lysed with a French press following by centrifugation to remove debris. Proteins were precipitated with 50% saturated ammonium sulfate, recovered by centrifugation, and chromatographed on Sephadex G-25 (Amersham Pharmacia Biotech) in 50 mM Tris-HCl pH 8, 10 mM NaCl, 1 mM DTT, 1 mM EDTA. The void volume was pooled and chromatographed on Q-Sepharose-FF in the same buffer, and SHP-2 was eluted with a 0-150 mM gradient of NaCl in the same buffer. Fractions were assayed, pooled, and stored as described for PTP1B.
as §1

Assay [5] concerns the target T5, Bovine PP2B (Bos taurus, UniProt P48452).
T5 construct: purchased Sigma C1907
Kind of assay: Inhibition constant determination, selectivity panel: PP2B (pNPP hydrolysis). The format is biochemical. As to conditions: competitive Ki; pNPP substrate; read-out: Phosphatase Inhibition Constants (Kic) PP2B. As for the experimental part:
Bovine PP2B was obtained commercially (C1907 Sigma, St. Louis, Mo.).
as §1

Assay [6] addresses T6, TCPTP (Homo sapiens, UniProt P17706).
T6 sequence (P17706 1-283): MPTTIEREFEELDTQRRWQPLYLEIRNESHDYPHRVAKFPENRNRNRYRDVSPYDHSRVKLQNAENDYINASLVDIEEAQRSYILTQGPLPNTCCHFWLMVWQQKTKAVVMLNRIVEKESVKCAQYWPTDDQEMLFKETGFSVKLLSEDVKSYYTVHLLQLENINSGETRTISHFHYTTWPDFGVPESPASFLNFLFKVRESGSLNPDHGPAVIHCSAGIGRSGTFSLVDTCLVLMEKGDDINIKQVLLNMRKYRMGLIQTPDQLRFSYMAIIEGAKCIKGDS
As to conditions: read-out: Phosphatase Inhibition Constants (Kic) TC-PTP; competitive Ki, +/- S.D.; pNPP substrate.

Assay [7] deals with T6, TCPTP. As to the kind of experiment: biochemical.
In assay [8] the target is T7, LAR (Homo sapiens, UniProt P10586).
T7 construct: purchased New England Biolabs P0750L
T7 sequence (P10586 1301-1639 limits assumed): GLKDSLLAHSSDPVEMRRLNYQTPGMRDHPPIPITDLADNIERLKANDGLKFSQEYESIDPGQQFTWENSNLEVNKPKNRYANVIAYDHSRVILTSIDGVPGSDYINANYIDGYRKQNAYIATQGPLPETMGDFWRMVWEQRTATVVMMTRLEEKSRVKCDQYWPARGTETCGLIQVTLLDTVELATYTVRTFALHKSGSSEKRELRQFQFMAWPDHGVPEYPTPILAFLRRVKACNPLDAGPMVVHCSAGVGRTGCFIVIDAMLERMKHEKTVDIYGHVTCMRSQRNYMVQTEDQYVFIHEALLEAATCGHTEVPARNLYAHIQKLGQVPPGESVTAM
Kind of assay: Inhibition constant determination, selectivity panel: LAR (pNPP hydrolysis). The format is biochemical. As to conditions: competitive Ki; pNPP substrate; read-out: Phosphatase Inhibition Constants (Kic) LAR.

Like-named read-outs stand apart in the source and are kept apart here.

T5 sequence (P63099 2-170 partner limits assumed, other chains not shown): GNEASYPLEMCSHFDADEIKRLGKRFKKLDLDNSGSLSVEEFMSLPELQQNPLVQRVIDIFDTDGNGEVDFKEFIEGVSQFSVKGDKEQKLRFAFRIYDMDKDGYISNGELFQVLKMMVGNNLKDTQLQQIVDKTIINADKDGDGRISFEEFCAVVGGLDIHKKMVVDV

For the compound `COC(=O)c1c(O)cccc1OC/C=C/c1ccc(F)c(-c2cc(C(=O)O)no2)c1` [Example 8, 5-(2-fluoro-5-((1E)-3-(3-hydroxy-2-(methoxycarbonyl)phenoxy)prop-1-enyl)phenyl)isoxazole-3-carboxylic Acid], the Ki in assay [1] was greater than 300 µM; in assay [2], greater than 300 µM; in assay [3] it was 6.9 µM; in assay [4], greater than 300 µM; in assay [5] it was greater than 300 µM; in assay [6] it was 164 µM.

As for `COC(=O)c1c(O)cccc1OC/C=C/c1cccc(-c2cc(C(=O)O)no2)c1` [Example 1, 5-(3-((1E)-3-(3-hydroxy-2-(methoxycarbonyl)phenoxy)prop-1-enyl)phenyl)isoxazole-3-carboxylic Acid], the Ki in assay [1] is greater than 300 µM; in assay [2], greater than 300 µM; in assay [4] it was greater than 300 µM; in assay [7], 202 µM; in assay [5], greater than 300 µM; in assay [8], greater than 300 µM.
